Results: article PMC9127186, “Molecular Basis Underlying Hepatobiliary and Renal Excretion of Phenolic Acids of Salvia miltiorrhiza Roots (Danshen)” (Frontiers in Pharmacology, 2022)

What was measured:
human OCT1 = target: T1, human OCT1 (Homo sapiens, UniProt O15245); settings: 10 min, 100 μM
T1 sequence (O15245 1-554): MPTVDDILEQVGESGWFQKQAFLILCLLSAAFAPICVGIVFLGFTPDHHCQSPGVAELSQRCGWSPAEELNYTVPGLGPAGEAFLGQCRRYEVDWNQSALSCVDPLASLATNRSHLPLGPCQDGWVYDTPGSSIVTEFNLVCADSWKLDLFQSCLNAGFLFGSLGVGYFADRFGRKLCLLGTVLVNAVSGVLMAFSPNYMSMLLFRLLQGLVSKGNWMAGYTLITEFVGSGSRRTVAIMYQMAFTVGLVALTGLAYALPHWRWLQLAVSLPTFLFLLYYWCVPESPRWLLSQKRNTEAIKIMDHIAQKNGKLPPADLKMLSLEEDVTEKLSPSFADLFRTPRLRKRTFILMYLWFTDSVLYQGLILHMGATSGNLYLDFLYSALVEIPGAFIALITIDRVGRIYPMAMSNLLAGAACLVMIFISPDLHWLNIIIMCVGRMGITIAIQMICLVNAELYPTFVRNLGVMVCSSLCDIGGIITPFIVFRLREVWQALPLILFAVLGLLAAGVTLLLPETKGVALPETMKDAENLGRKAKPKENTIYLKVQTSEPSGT

human NTCP = target: T2, human NTCP (Homo sapiens, UniProt Q14973); settings: 10 min, 100 μM
T2 sequence (Q14973 1-349): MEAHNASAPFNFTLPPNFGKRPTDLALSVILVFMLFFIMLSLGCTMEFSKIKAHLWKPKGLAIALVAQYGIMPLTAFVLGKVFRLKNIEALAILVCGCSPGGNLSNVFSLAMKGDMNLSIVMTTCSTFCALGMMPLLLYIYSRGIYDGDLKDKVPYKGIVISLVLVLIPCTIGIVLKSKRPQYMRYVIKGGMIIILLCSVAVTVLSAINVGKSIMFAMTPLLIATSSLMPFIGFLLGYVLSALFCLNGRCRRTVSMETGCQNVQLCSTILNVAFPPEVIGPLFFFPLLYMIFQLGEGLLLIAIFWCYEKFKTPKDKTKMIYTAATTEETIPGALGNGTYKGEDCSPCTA

rat Octn2 = target: T3, rat Octn2 (Rattus norvegicus, UniProt O70594); settings: 10 min, 100 μM
T3 sequence (O70594 1-557): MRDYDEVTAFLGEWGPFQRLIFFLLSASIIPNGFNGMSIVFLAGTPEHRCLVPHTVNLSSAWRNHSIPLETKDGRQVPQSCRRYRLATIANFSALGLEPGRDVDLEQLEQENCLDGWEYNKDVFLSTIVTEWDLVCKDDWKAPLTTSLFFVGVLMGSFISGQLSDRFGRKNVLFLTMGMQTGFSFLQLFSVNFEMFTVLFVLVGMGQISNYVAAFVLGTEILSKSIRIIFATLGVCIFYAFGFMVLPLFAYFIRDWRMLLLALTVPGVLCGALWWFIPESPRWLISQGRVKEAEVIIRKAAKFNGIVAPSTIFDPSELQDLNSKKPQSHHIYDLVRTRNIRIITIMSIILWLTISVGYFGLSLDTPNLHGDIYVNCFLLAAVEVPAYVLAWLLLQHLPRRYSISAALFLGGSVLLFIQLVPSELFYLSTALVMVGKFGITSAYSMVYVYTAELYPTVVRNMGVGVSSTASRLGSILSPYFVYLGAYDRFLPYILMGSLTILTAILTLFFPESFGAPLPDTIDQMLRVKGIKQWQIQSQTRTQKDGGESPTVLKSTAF

human PEPT1 = target: T4, human PEPT1 (Homo sapiens, UniProt P46059); settings: 10 min, 100 μM, pH 6
T4 sequence (P46059 1-708): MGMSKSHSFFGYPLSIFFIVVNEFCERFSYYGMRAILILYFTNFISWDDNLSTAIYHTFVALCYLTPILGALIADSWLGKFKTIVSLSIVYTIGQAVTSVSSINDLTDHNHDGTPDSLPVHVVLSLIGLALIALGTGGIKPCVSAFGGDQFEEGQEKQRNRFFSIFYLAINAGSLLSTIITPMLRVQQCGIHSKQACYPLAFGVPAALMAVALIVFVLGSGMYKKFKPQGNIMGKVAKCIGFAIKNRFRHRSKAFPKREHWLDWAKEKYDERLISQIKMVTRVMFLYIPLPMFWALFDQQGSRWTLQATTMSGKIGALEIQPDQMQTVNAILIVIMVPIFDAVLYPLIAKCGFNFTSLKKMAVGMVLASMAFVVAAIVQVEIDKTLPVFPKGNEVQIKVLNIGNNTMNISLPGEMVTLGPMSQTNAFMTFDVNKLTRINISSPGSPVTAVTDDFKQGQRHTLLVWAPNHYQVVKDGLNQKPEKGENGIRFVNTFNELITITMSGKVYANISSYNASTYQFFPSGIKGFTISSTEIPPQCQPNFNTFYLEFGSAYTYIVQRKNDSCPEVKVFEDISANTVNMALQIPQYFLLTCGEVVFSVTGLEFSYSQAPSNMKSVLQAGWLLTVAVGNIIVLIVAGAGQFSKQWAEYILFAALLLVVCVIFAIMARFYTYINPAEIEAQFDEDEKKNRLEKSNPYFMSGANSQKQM

human PEPT2 = target: T5, human PEPT2 (Homo sapiens, UniProt Q16348); settings: 10 min, 100 μM, pH 6
T5 sequence (Q16348 1-729): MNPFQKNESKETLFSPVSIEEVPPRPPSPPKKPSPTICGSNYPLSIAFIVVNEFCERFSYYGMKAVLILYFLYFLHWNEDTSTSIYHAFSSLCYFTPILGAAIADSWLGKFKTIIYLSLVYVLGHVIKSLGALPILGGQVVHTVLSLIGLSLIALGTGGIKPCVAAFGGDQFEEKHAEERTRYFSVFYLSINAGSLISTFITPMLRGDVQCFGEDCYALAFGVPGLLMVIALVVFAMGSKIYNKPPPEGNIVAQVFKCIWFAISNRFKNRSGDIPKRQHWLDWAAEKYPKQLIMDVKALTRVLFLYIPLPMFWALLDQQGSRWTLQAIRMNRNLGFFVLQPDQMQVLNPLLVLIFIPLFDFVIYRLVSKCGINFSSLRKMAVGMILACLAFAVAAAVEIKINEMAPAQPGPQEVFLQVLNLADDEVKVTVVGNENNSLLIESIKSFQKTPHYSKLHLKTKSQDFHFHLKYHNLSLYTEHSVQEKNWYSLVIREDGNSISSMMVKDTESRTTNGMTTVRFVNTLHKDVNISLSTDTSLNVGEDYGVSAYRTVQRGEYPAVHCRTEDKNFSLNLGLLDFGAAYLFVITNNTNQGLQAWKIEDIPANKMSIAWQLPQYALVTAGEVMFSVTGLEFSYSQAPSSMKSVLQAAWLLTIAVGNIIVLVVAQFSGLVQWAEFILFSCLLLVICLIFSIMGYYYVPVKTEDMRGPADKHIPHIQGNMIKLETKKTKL

Structure (SMILES): O=C(/C=C/c1ccc(O)c(O)c1)O[C@H](Cc1ccc(O)c(O)c1)C(=O)O [Rosmarinic acid, rosmarinic acid]
- TransportTC/TransportMC ratio (net transport ratio) (human OCT1): 1.46 ± 0.57
- TransportTC/TransportMC ratio (net transport ratio) (human NTCP): 2.76 ± 0.36
- TransportTC/TransportMC ratio (net transport ratio) (rat Octn2): 1.14 ± 0.04
- TransportTC/TransportMC ratio (net transport ratio) (human PEPT1): 1.42 ± 0.53
- TransportTC/TransportMC ratio (net transport ratio) (human PEPT2): 1.12 ± 0.22

Structure (SMILES): O=C(/C=C/c1ccc(O)c(O)c1/C=C/c1ccc(O)c(O)c1)O[C@H](Cc1ccc(O)c(O)c1)C(=O)O [Salvianolic acid A, salvianolic acid A]
- TransportTC/TransportMC ratio (net transport ratio) (human OCT1): 1.04 ± 0.32
- TransportTC/TransportMC ratio (net transport ratio) (human NTCP): 0.93 ± 0.11
- TransportTC/TransportMC ratio (net transport ratio) (rat Octn2): 0.95 ± 0.44
- TransportTC/TransportMC ratio (net transport ratio) (human PEPT1): 1.45 ± 0.27
- TransportTC/TransportMC ratio (net transport ratio) (human PEPT2): 1.14 ± 0.31
